In patent US8178123B2, “Method for augmentation of intraepithelial and systemic exposure of therapeutic agents having substrate activity for cytochrome P450 enzymes and membrane efflux systems following vaginal and oral cavity administration” (Femina Pharma Incorporated, priority 2001, dated 2012):

Tests used:
P-glycoprotein = molecular target: T1, P-glycoprotein (Oryctolagus cuniculus, UniProt Q6UUW3); assay: Apical to basolateral transport of 14C-paclitaxel across rabbit intestinal mucosa with and without glycol ethers or verapamil; type: in vitro ADME
T1 construct: from tissue; host or cells: rabbit intestinal mucosa (tissue perfusion / diffusion cells)
T1 sequence (Q6UUW3 1-1279): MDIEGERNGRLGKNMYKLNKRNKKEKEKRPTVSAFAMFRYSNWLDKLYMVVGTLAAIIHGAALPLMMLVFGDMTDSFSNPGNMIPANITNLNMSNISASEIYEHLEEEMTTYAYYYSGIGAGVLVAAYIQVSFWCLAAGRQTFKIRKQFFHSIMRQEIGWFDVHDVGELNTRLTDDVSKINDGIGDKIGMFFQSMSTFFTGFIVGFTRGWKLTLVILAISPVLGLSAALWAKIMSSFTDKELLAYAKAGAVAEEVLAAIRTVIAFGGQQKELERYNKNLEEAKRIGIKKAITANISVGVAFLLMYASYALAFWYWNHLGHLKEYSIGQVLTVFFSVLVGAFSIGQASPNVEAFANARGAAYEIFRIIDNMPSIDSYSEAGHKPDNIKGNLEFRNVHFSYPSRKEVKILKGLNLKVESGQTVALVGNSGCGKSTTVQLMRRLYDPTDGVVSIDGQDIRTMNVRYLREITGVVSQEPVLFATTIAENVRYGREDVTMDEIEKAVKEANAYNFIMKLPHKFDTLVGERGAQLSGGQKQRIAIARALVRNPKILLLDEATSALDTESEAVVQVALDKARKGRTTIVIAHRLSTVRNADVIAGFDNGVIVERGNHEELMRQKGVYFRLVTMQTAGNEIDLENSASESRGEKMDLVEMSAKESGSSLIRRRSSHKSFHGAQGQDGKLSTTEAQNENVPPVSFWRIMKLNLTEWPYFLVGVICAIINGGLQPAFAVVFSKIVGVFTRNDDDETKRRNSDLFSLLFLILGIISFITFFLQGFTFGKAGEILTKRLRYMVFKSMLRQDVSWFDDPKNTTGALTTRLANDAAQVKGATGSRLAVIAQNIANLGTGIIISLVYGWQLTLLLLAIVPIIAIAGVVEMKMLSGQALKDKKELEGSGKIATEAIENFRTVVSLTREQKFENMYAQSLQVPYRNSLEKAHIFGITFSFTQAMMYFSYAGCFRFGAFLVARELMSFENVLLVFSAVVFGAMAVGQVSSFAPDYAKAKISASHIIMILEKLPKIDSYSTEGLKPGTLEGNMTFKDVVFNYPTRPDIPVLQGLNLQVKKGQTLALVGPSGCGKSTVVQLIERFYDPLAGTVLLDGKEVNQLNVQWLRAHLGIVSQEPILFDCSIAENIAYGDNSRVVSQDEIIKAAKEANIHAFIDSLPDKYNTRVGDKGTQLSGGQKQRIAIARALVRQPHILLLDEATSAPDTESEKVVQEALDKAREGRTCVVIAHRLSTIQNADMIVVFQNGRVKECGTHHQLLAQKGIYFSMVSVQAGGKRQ
Description: Briefly, fresh mucosal samples are collected from female, white New Zealand rabbits, are separated from underlying connective tissue, and are mounted into modified Franz-type diffusion cells (5 mm diameter). […] Radioactivity is determined by liquid scintillation counting using a Beckman LS 6500. Each transport experiment is performed in four replicate tissue samples. […] Individual and mean Papp values with corresponding standard deviations (S.D.) are calculated for each group. Statistical significance is tested by one-way analysis of variance (ANOVA) using Tukey's family error at p<0.05. […]

cytochrome P450 = assay: Cytochrome P450-mediated oxidation of coumarin to 7α-hydroxycoumarin by rabbit liver microsomes; type: biochemical; details: 1% glycol ether
Description: To evaluate the effect of glycol ethers on cytochrome P450-mediated metabolism, enzymatic conversion of coumarin to its 7α-hydroxycoumarin oxidation product by rabbit liver microsomes in the presence and absence of 5% DGMEE, 1% DBMPE, and 1% DGMBE is determined according to a protocol described previously by Pearce and co-workers (Arch. Biochem. Biophys., 298, 211-225 (1992)).

membrane efflux systems = assay: Bidirectional transport of ritonavir across rabbit mucosa in diffusion cells (membrane efflux activity); type: in vitro ADME
From the text: To illustrate experimentally the functional differences in membrane efflux activity among the intestinal, vaginal, and buccal mucosal barriers, bidirectional transport of the protease inhibitor ritonavir is quantitatively assessed and results seen in FIG. 1 may be obtained (FIG. 1). Experimental procedures are described in Example 2.
Briefly, fresh mucosal samples are collected from female, white New Zealand rabbits, are separated from underlying connective tissue, and are mounted into modified Franz-type diffusion cells (5 mm diameter). Permeability studies from the apical to the basolateral as well as in the opposite direction are performed using continuous-flow perfusion chambers designed for mucosal tissue (Squier et al. J. Pharm. Sci., 86, 82-84 (1997)). ^3H-Ritonavir (˜3 μCi/mL) dissolved in 1 mL of 0.01 M PBS, pH 7.4, is applied to the donor compartment, and the perfusate in the received compartment is collected into scintillation vials through 16 hrs. Radioactivity is determined by liquid scintillation counting using a Beckman LS 6500. Each transport experiment is performed in four replicate tissue samples. Apparent permeability coefficients (Papp) are calculated from steady state flux according to Papp [cm/min]=(ΔQ/Δt)/Axc(0), where ΔQ/Δt=linear appearance rate of mass in the receiver, A=cross-sectional area (i.e., 0.20 cm^2), and c(0)=initial ritonavir concentration in the donor compartment at t=0. Individual and mean Papp values with corresponding standard deviations (S.D.) are calculated for each group. Statistical significance is tested by one-way analysis of variance (ANOVA) using Tukey's family error at p<0.05. To evaluate the contribution of membrane efflux system on ritonavir permeability Refflux was calculated as the ratio of Papp(basolateral-apical)/Papp(apical-basolateral).

Structure (SMILES): CCCCOCCOCCO [DGMBE, diethylene glycol monobutyl ether]
- enhancement of intestinal absorption of paclitaxel (P-glycoprotein; 1% in transport buffer): 4.1 fold
- reduction of formation of the 7α-hydroxycoumarin metabolite (cytochrome P450): about 42%

Structure (SMILES): CCOCCOCCO [DGMEE, diethylene glycol mono 2-ethyl ether]
- enhancement of intestinal absorption of paclitaxel (P-glycoprotein; 5% in transport buffer): 1.8 fold

Structure (SMILES): CCCOCCOCCO [DGMPE, diethylene glycol monopropyl ether]
- enhancement of intestinal absorption of paclitaxel (P-glycoprotein; 1% in transport buffer): 2.5 fold

Structure (SMILES): CC(C)c1nc(CN(C)C(=O)N[C@H](C(=O)N[C@@H](Cc2ccccc2)C[C@H](O)[C@H](Cc2ccccc2)NC(=O)OCc2cncs2)C(C)C)cs1 [ritonavir]
- Refflux compared with intestinal barrier (membrane efflux systems; buccal rabbit epithelium in vitro): significantly smaller
- basolateral to apical flux relative to the opposite direction (Refflux) (membrane efflux systems; intestinal rabbit mucosa in vitro, 3H-ritonavir): 9.2 fold
- Refflux compared with intestinal barrier (membrane efflux systems; vaginal rabbit epithelium in vitro): significantly smaller
